This note sets out measurements from US12520839B2, “Methods and compositions for cryopreservation of cell therapies” (The George Washington University, priority 2020, dated 2026).

Type in all cases: cell-based
In data set [1] the test system is NK cells. The data set can be described thus: NK-cell phenotype by flow cytometry after thawing. As for the experimental part:
(§1) Polyclonally activated T cells and expanded NK cells were expanded for 14 and 12 days respectively and cryopreserved using freezing media (FM) with or without TAPI-2 prepared as described in Example 1. Cryovials were then stored in liquid nitrogen tank.
Flow analysis was performed 120 minutes after thawing (except for NKG2D which expression was analyzed immediately after thawing).
In general terms: Flow cytometry measures light scatter and fluorescence of single cells or particles in a stream.

The test system of the next data set is NK cells and T cells. Put plainly: Cell viability after thawing, trypan blue exclusion. The note with it: TAPI-2 added to freezing medium; immediately and 120 minutes after thawing; FIGS. 6A-6B. As for the experimental part: as §1
Cryovials were thawed in water bath with cell wash performed, cell recovery (FIGS. 5A-5B) and viability (FIGS. 6A-6B) was assessed immediately after thawing. Cell viability was also assessed 120 minutes after thawing (FIGS. 6A-6B). Trypan blue exclusion method was use to evaluate cell viability.

Data set [2] relates to NK cells. The data set can be described thus: CD16 expression on NK cells after cryopreservation and thawing. As for the experimental part:
(§2) A freezing medium (FM) was prepared having 50% RPMI, 40% FBS, 10% DMSO. FM was supplemented with the ADAM17 inhibitor TAPI-2 at amounts indicated in this example. Additionally, a wash medium (WM) was prepared having 50% RPMI, 40% FBS, 10% DMSO and supplemented with TAPI-2 at amounts indicated in this example.
(§3) Experiments were generally performed using in-vitro NK cells and T cells that were isolated and expanded for 14 days in culture. On day 14 of the culture, the NK cells and T cells were cryopreserved the using FM with or without TAPI-2. Then, cells were thawed using WM with or without TAPI-2.
CD16 expression is maintained in NK cells in presence of TAPI-2.

Another data set has as its system T cells. Put plainly: CD62L expression on T cells after cryopreservation and thawing. As for the experimental part:
as §2, §3
CD62L expression is maintained in T cells in presence of TAPI-2.
Next, T cells were cryopreserved in freezing media without TAPI-2.

As to `CC(C)C[C@H](CC(=O)NO)C(=O)N[C@H](C(=O)N[C@@H](C)C(=O)NCCN)C(C)(C)C` [TAPI-2], the phenotype entry in the data set with NK cells [1] (TAPI-2 added to freezing medium, summary statement) is given as “did not negatively affect”. Moreover, the NK-cell phenotype result in the data set on NK cells [1] (TAPI-2 in the freezing media, flow analysis 120 minutes after thawing (NKG2D immediately after thawing), FIG. 7) was “not affected”. In the data set on NK cells and T cells, the cell viability result was “did not negatively affect”. In addition, the “CD16 expression after thawing” value in the data set with NK cells [2] (FM containing 50 μM TAPI-2, thawed and not washed, immediately after thawing and 2 hours thereafter, FIG. 1) is given as “able to maintain CD16 expression”. In addition, the “CD16 expression versus level prior to cryopreservation” value with NK cells [2] (NK cells cryopreserved in FM containing TAPI-2, FIG. 1) is “retained expression of CD16 to the same level as prior cryopreservation”. Also, the “CD16 expression after washing with wash medium containing TAPI-2” value in the data set with NK cells [2] (frozen in freezing media without TAPI-2, wash media with 10 μM TAPI-2 (Thaw+), FIG. 2) was “showed CD16 expression”. Moreover, the “CD62L expression after thawing” value in the data set on T cells (FM containing 50 μM TAPI-2, thawed and not washed, immediately after thawing and 2 hours thereafter, FIG. 3) was “able to maintain CD62L expression”. The “CD62L expression versus level before cryopreservation” value in the data set on T cells (T cells cryopreserved in FM containing TAPI-2, FIG. 3) was “retained expression of CD62L to a level that was equal to that before cells were subjected to cryopreservation”. Further, the “CD62L expression after washing with wash medium containing TAPI-2” value with T cells (frozen in freezing media without TAPI-2, wash media with 10 μM TAPI-2 (Thaw+), FIG. 4) was “showed CD62L expression”.
